We go through ten compounds from PubChem BioAssay (NCI).

Test systems include HCT-15 colon; HCT-116 colon; SK-OV-3 ovarian; U251 CNS; IGROV1 ovarian; OVCAR-3 ovarian; 786-0 renal; SN12C renal; SNB-75 CNS; UACC-62 melanoma.
Common to all, as to test: NCI tumour cell line growth inhibition, 48 h

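96-well plates; 48 h exposure; 5 concentrations. Endpoints by linear interpolation between flanking doses. Not reached: highest tested concentration assigned. Here, GI50 denotes the concentration required for 50% inhibition of growth. Definition used: TGI = concentration required for complete inhibition of growth.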

Take `COc1cc(-c2cn(C)c(=O)c(C)c2C)cc(OC)c1CN1CC[C@H](N2CCN(c3ccc(N[C@H]4CCC(=O)NC4=O)cc3F)CC2)C(F)(F)C1`: the GI50 in the test on HCT-15 colon is 10.7 µM; in the test with HCT-116 colon it was 13.1 µM; in the test with SK-OV-3 ovarian, 18.4 µM; with U251 CNS it was 13.6 µM; with IGROV1 ovarian it was 13.8 µM; in the test with OVCAR-3 ovarian it was 13.4 µM. For the same compound, the GI50 in the test with 786-0 renal was 12.8 µM; with SN12C renal it was 11.6 µM; with SNB-75 CNS it was 5.2 µM. Moreover, the TGI in the test with HCT-15 colon came out at 24.1 µM; with HCT-116 colon, 27.7 µM; in the test with SK-OV-3 ovarian, 36.2 µM; in the test on U251 CNS it was 29.6 µM; with IGROV1 ovarian, 34.3 µM; with OVCAR-3 ovarian it was 27.2 µM. Besides, the TGI with 786-0 renal is 36.6 µM; with SN12C renal, 26.8 µM; in the test with SNB-75 CNS, 21.9 µM.
Consider `Nc1ccc(SC23CC4CC(CC(C4)C2)C3)cc1`, for which the TGI in the test on HCT-15 colon, in the test with HCT-116 colon, with SK-OV-3 ovarian, in the test with U251 CNS, in the test with UACC-62 melanoma and with IGROV1 ovarian was more than 100 µM in each case. The TGI in the test with OVCAR-3 ovarian, in the test with 786-0 renal and in the test on SN12C renal was more than 100 µM each time.
Turning to `C=CC(=O)N1CCN(c2ncnc3c(F)c(-c4c(O)cccc4F)c(Cl)cc23)CC1`, the GI50 in the test on HCT-15 colon is 10 µM; with HCT-116 colon, 9.19 µM; with U251 CNS, 13.2 µM; in the test with UACC-62 melanoma it was 9.36 µM; in the test with IGROV1 ovarian it was 11.6 µM; with OVCAR-3 ovarian it was 9.02 µM. Also, the GI50 with 786-0 renal is 11.4 µM; with SN12C renal it was 13.9 µM; with SNB-75 CNS it was 7.54 µM. Moreover, the TGI in the test on HCT-15 colon came to 27 µM; in the test with HCT-116 colon, 23.1 µM; with U251 CNS, 46.8 µM; with UACC-62 melanoma it was 22.1 µM; in the test with IGROV1 ovarian, 24.8 µM; in the test with OVCAR-3 ovarian, 23.5 µM. Moreover, the TGI was 25.4 µM in the test with 786-0 renal, 31.3 µM in the test on SN12C renal and 22.6 µM in the test with SNB-75 CNS.
Take `CCCS(=O)(=O)c1nc(NC2CC2)cc(-c2ccc3c(ccn3C3CC(C)(C)NC(C)(C)C3)c2)n1`: the GI50 is 1.57 µM in the test with HCT-15 colon; 1.68 µM with HCT-116 colon; 1.86 µM in the test with SK-OV-3 ovarian; 1.97 µM in the test with IGROV1 ovarian; 1.84 µM with OVCAR-3 ovarian; 1.21 µM in the test on 786-0 renal. The GI50 in the test on SN12C renal was 1.88 µM; with SNB-75 CNS, 1.45 µM. Besides, the TGI is 3.12 µM in the test on HCT-15 colon; 3.22 µM with HCT-116 colon; 3.46 µM with SK-OV-3 ovarian; 3.81 µM in the test on IGROV1 ovarian; 3.42 µM in the test on OVCAR-3 ovarian; 2.64 µM with 786-0 renal. The results for the TGI in the test with SN12C renal and in the test with SNB-75 CNS were 3.8 µM and 2.86 µM, respectively.
For the compound `CN(C)CCNC(=O)Nc1c(C#N)[n+]([O-])c2cc(Cl)c(Cl)cc2[n+]1[O-]`, the GI50 is 41.4 µM with HCT-15 colon; 13.4 µM with HCT-116 colon; 21.1 µM in the test on SK-OV-3 ovarian; 14.5 µM in the test with U251 CNS; 10.2 µM in the test on UACC-62 melanoma; 21.4 µM in the test with OVCAR-3 ovarian. Moreover, the GI50 was 35.8 µM in the test with 786-0 renal, 17.2 µM with SN12C renal and 14.7 µM in the test with SNB-75 CNS. For the same compound, the TGI in the test on HCT-15 colon was more than 100 µM; in the test on HCT-116 colon, more than 100 µM; in the test on SK-OV-3 ovarian it was 97.7 µM; in the test with U251 CNS, more than 100 µM; in the test with UACC-62 melanoma, 66.5 µM; in the test with OVCAR-3 ovarian, 57 µM. In addition, the TGI in the test with 786-0 renal, in the test with SN12C renal and in the test with SNB-75 CNS was more than 100 µM throughout.
On to `COc1ccc2c(c1)[C@@]13CCN4CC5=CCO[C@H]6CC(=O)N2[C@H]1[C@H]6[C@H]5C[C@H]43`, for which the TGI in the test with HCT-15 colon, in the test on HCT-116 colon, in the test with SK-OV-3 ovarian, with U251 CNS, in the test with UACC-62 melanoma and with IGROV1 ovarian was more than 100 µM each time. Moreover, the TGI in the test with OVCAR-3 ovarian, in the test with 786-0 renal and in the test with SN12C renal was more than 100 µM in each case.
In the case of `Cc1ccc2/c(=C/c3ccc(N(C)C)cc3)c3cc(-c4ccccc4)[n+](C)n3c2c1`, the GI50 with HCT-15 colon was 0.824 µM; in the test on HCT-116 colon, 0.0406 µM; in the test on U251 CNS, less than 0.01 µM; in the test with UACC-62 melanoma, 0.0292 µM; with IGROV1 ovarian, 0.501 µM; in the test with OVCAR-3 ovarian, 1.1 µM. The GI50 with 786-0 renal was 0.305 µM; in the test with SNB-75 CNS, 0.144 µM. Further, the TGI in the test with HCT-15 colon was more than 100 µM; with HCT-116 colon, more than 100 µM; with UACC-62 melanoma it was 0.252 µM; in the test with OVCAR-3 ovarian it was 47.5 µM; in the test on 786-0 renal, 2.92 µM; with SNB-75 CNS it was 2.02 µM.
For the compound `NC1=NC(=O)C(CC(=O)Nc2ccc([N+](=O)[O-])cc2[N+](=O)[O-])S1` (configuration not stated), the TGI with HCT-116 colon, in the test on U251 CNS, in the test with UACC-62 melanoma, in the test on IGROV1 ovarian, with OVCAR-3 ovarian and in the test with 786-0 renal was more than 100 µM each time. The TGI in the test on SN12C renal and in the test with SNB-75 CNS was more than 100 µM in each case.
On to `COc1ccc(C2=NC(C)(C)CO2)cc1`, for which the TGI in the test with HCT-15 colon, with HCT-116 colon, in the test with U251 CNS, in the test on UACC-62 melanoma, with IGROV1 ovarian and with OVCAR-3 ovarian was more than 100 µM each time. The TGI with 786-0 renal, in the test with SN12C renal and with SNB-75 CNS was more than 100 µM each time.
Regarding `Cc1c(C(=O)NN)nnn1-c1ccnc2c(C(F)(F)F)cccc12`, the GI50 with HCT-15 colon, in the test with HCT-116 colon, with SK-OV-3 ovarian, in the test on UACC-62 melanoma, with IGROV1 ovarian and with OVCAR-3 ovarian was more than 100 µM each time. Further, the GI50 is more than 100 µM in the test with 786-0 renal, 76.5 µM in the test with SN12C renal and 37.9 µM in the test with SNB-75 CNS. Also, the TGI in the test on HCT-15 colon, in the test on HCT-116 colon, in the test on SK-OV-3 ovarian, in the test with UACC-62 melanoma, in the test on IGROV1 ovarian and with OVCAR-3 ovarian was more than 100 µM throughout. For the same compound, the TGI with 786-0 renal, with SN12C renal and in the test with SNB-75 CNS was more than 100 µM throughout.
